From the supplement of paper PMC10883282

Legend:
Assay in all cases: relative viability vs DMSO control (72 h) (fraction); higher = more viable cells
SW872 = tested on: SW872
Procedure, shortened: (§1)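 Sarcoma cell lines in 384-well plates, seeded to reach 80–90% confluence, were given compound after 24 h and kept 72 h at 37 °C, 5% CO2, with 0.1% DMSO vehicle and a 5 µM positive control. Relative viability came from ATPLite as percent growth, averaged over up to triplicate wells. On the rescaled values, 1 equals full and 0 equals none.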

VA-ES-BJ = tested on: VA-ES-BJ
Procedure, shortened: as §1

SW684 = tested on: SW684
Procedure, shortened: as §1

KHOS-NP = tested on: KHOS-NP
Procedure, shortened: as §1

RD = tested on: RD
Procedure, shortened: as §1

RD-ES = tested on: RD-ES
Procedure, shortened: as §1

MES-SA = tested on: MES-SA
Procedure, shortened: as §1

G401 = tested on: G401
Procedure, shortened: as §1

HT1080 = tested on: HT1080
Procedure, shortened: as §1

SW1353 = tested on: SW1353
Procedure, shortened: as §1

SK-ES-1 = tested on: SK-ES-1
Procedure, shortened: as §1

SK-LMS-1 = tested on: SK-LMS-1
Procedure, shortened: as §1

COc1cc(OC)c(/C=C/S(=O)(=O)Cc2ccc(OC)c(NCC(=O)O)c2)c(OC)c1 [Rigosertib]
Conditions | relative viability
G401, 0.00017 µM | 1.01
G401, 0.00051 µM | 1
G401, 0.00152 µM | 0.993
G401, 0.00457 µM | 1.02
G401, 0.01372 µM | 1.04
G401, 0.04115 µM | 1.01
G401, 0.1235 µM | 0.983
G401, 0.3704 µM | 0.919
G401, 1.111 µM | 0.534
G401, 3.333 µM | 0.424
G401, 10 µM | 0.361
HT1080, 0.00017 µM | 1.07
HT1080, 0.00051 µM | 1.03
HT1080, 0.00152 µM | 1.07
HT1080, 0.00457 µM | 1.06
HT1080, 0.01372 µM | 1.05
HT1080, 0.04115 µM | 1.08
HT1080, 0.1235 µM | 1.06
HT1080, 0.3704 µM | 0.412
HT1080, 1.111 µM | 0.0983
HT1080, 3.333 µM | 0.0596
HT1080, 10 µM | 0.0541
KHOS-NP, 0.00017 µM | 1.09
KHOS-NP, 0.00051 µM | 1.09
KHOS-NP, 0.00152 µM | 1.1
KHOS-NP, 0.00457 µM | 1.11
KHOS-NP, 0.01372 µM | 1.1
KHOS-NP, 0.04115 µM | 1.11
KHOS-NP, 0.1235 µM | 1.08
KHOS-NP, 0.3704 µM | 0.704
KHOS-NP, 1.111 µM | 0.478
KHOS-NP, 3.333 µM | 0.414
KHOS-NP, 10 µM | 0.357
MES-SA, 0.00017 µM | 0.901
MES-SA, 0.00051 µM | 0.906
MES-SA, 0.00152 µM | 0.911
MES-SA, 0.00457 µM | 0.91
MES-SA, 0.01372 µM | 0.918
MES-SA, 0.04115 µM | 0.932
MES-SA, 0.1235 µM | 0.607
MES-SA, 0.3704 µM | 0.271
MES-SA, 1.111 µM | 0.172
MES-SA, 3.333 µM | 0.13
MES-SA, 10 µM | 0.13
RD, 0.00017 µM | 1.08
RD, 0.00051 µM | 1.09
RD, 0.00152 µM | 1.08
RD, 0.00457 µM | 1.094
RD, 0.01372 µM | 1.05
RD, 0.04115 µM | 1.04
RD, 0.1235 µM | 0.825
RD, 0.3704 µM | 0.372
RD, 1.111 µM | 0.215
RD, 3.333 µM | 0.23
RD, 10 µM | 0.256
RD-ES, 0.00017 µM | 0.999
RD-ES, 0.00051 µM | 1
RD-ES, 0.00152 µM | 1
RD-ES, 0.00457 µM | 0.993
RD-ES, 0.01372 µM | 1.01
RD-ES, 0.04115 µM | 1
RD-ES, 0.1235 µM | 0.732
RD-ES, 0.3704 µM | 0.143
RD-ES, 1.111 µM | 0.0474
RD-ES, 3.333 µM | 0.031
RD-ES, 10 µM | 0.027
SK-ES-1, 0.00017 µM | 1
SK-ES-1, 0.00051 µM | 1.02
SK-ES-1, 0.00152 µM | 0.98
SK-ES-1, 0.00457 µM | 1.08
SK-ES-1, 0.01372 µM | 1.03
SK-ES-1, 0.04115 µM | 0.987
SK-ES-1, 0.1235 µM | 0.252
SK-ES-1, 0.3704 µM | 0.038
SK-ES-1, 1.111 µM | 0.0202
SK-ES-1, 3.333 µM | 0.0195
SK-ES-1, 10 µM | 0.0239
SK-LMS-1, 0.00017 µM | 1.08
SK-LMS-1, 0.00051 µM | 1.05
SK-LMS-1, 0.00152 µM | 1.05
SK-LMS-1, 0.00457 µM | 1.03
SK-LMS-1, 0.01372 µM | 1.03
SK-LMS-1, 0.04115 µM | 0.912
SK-LMS-1, 0.1235 µM | 0.659
SK-LMS-1, 0.3704 µM | 0.492
SK-LMS-1, 1.111 µM | 0.359
SK-LMS-1, 3.333 µM | 0.355
SK-LMS-1, 10 µM | 0.325
SW684, 0.00017 µM | 1.14
SW684, 0.00051 µM | 1.2
SW684, 0.00152 µM | 1.15
SW684, 0.00457 µM | 1.19
SW684, 0.01372 µM | 1.19
SW684, 0.04115 µM | 1.15
SW684, 0.1235 µM | 1.02
SW684, 0.3704 µM | 0.73
SW684, 1.111 µM | 0.681
SW684, 3.333 µM | 0.713
SW684, 10 µM | 0.756
SW872, 0.00017 µM | 1.04
SW872, 0.00051 µM | 1.05
SW872, 0.00152 µM | 1.05
SW872, 0.00457 µM | 1.06
SW872, 0.01372 µM | 1.045
SW872, 0.04115 µM | 1.06
SW872, 0.1235 µM | 1.019
SW872, 0.3704 µM | 0.927
SW872, 1.111 µM | 0.515
SW872, 3.333 µM | 0.479
SW872, 10 µM | 0.477
SW1353, 0.00017 µM | 1
SW1353, 0.00051 µM | 1.01
SW1353, 0.00152 µM | 0.994
SW1353, 0.00457 µM | 0.989
SW1353, 0.01372 µM | 0.992
SW1353, 0.04115 µM | 0.968
SW1353, 0.1235 µM | 0.932
SW1353, 0.3704 µM | 0.702
SW1353, 1.111 µM | 0.426
SW1353, 3.333 µM | 0.428
SW1353, 10 µM | 0.429
VA-ES-BJ, 0.00017 µM | 1.05
VA-ES-BJ, 0.00051 µM | 1.03
VA-ES-BJ, 0.00152 µM | 1.02
VA-ES-BJ, 0.00457 µM | 1.03
VA-ES-BJ, 0.01372 µM | 1.05
VA-ES-BJ, 0.04115 µM | 0.961
VA-ES-BJ, 0.1235 µM | 0.772
VA-ES-BJ, 0.3704 µM | 0.53
VA-ES-BJ, 1.111 µM | 0.43
VA-ES-BJ, 3.333 µM | 0.403
VA-ES-BJ, 10 µM | 0.2992
